Reference: ChEMBL document CHEMBL1140941 (J Med Chem, 2009)

biological target: T1, Bile acid receptor (Homo sapiens, UniProt Q96RI1); assay: Agonist activity at human FXR expressed in african green monkey CV1 cells co-expressing ECRE with RXR co-factor by luciferase reporter gene assay; type: functional, cell-based, CV-1; details: not given
T1 sequence (Q96RI1 whole entry): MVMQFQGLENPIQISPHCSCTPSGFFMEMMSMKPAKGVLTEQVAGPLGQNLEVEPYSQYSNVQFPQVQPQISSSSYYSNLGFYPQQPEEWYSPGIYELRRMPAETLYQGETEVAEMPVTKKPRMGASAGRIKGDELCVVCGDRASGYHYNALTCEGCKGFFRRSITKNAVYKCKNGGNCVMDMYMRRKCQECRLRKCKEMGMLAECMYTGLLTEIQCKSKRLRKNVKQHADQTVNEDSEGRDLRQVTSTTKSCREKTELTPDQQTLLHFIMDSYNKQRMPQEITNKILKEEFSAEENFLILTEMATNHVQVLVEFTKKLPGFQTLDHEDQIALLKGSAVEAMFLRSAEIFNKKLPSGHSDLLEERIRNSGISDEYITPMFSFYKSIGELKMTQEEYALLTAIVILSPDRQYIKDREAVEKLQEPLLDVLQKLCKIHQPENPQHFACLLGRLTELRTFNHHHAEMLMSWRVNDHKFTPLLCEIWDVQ

SMILES	EC50 [nM]
CC(C)OC(=O)C1=CN(C(=O)c2ccc(F)cc2)CCc2c1[nH]c1ccccc21	500
CCOC(=O)C1=CN(C(=O)c2ccc(Cl)cc2)CC(C)c2c1[nH]c1ccccc21 (stereo not given)	73
CCOC(=O)C1=CN(C(=O)c2ccc(OC)cc2)CC(C)(C)c2c1[nH]c1ccccc21	29
CCOC(=O)C1=CN(C(=O)c2ccc(F)cc2)CC(C)c2c1[nH]c1ccccc21 (stereo not given)	57
CC(C)OC(=O)C1=CN(C(=O)c2ccc(F)cc2)CC(C)(C)c2c1[nH]c1ccccc21	8
CCCCOC(=O)C1=CN(C(=O)c2ccc(F)cc2)CCc2c1[nH]c1ccccc21	1100
CCOC(=O)C1=CN(C(=O)c2ccc(F)cc2)CC(C)(C)c2c1[nH]c1ccccc21	22
CCCOC(=O)C1=CN(C(=O)c2ccc(F)cc2)CCc2c1[nH]c1ccccc21	500

Continued, values first:

EC50 [nM]	SMILES
25	CCOC(=O)C1=CN(C(=O)c2ccc(Cl)cc2)CC(C)(C)c2c1[nH]c1ccccc21
600	CCOC(=O)C1=CN(C(=O)c2ccc(F)cc2)CCc2c1[nH]c1ccccc21
32	CCOC(=O)C1=CN(C(=O)c2ccc(F)c(F)c2)CC(C)c2c1[nH]c1ccccc21 (stereo not given)
60	CCOC(=O)C1=CN(C(=O)c2ccc(OC)cc2)CC(C)c2c1[nH]c1ccccc21 (stereo not given)

biological target: T2, Bile acid receptor (Homo sapiens) (UniProt Q96RI1); assay: Agonist activity at human FXR expressed in african green monkey CV1 cells co-expressing ECRE with RXR co-factor up to 10 uM by luciferase reporter gene assay relative to CDCA; type: functional, cell-based; details: CV-1
T2 sequence (whole entry): T1 sequence (Q96RI1 whole entry)

SMILES	Efficacy [%]
CC(C)OC(=O)C1=CN(C(=O)c2ccc(F)cc2)CCc2c1[nH]c1ccccc21	120
CCOC(=O)C1=CN(C(=O)c2ccc(Cl)cc2)CC(C)c2c1[nH]c1ccccc21 (stereo not given)	155
CCOC(=O)C1=CN(C(=O)c2ccc(OC)cc2)CC(C)(C)c2c1[nH]c1ccccc21	139
CCOC(=O)C1=CN(C(=O)c2ccc(F)cc2)CC(C)c2c1[nH]c1ccccc21 (stereo not given)	160
CC(C)OC(=O)C1=CN(C(=O)c2ccc(F)cc2)CC(C)(C)c2c1[nH]c1ccccc21	146
CCCCOC(=O)C1=CN(C(=O)c2ccc(F)cc2)CCc2c1[nH]c1ccccc21	109
CCOC(=O)C1=CN(C(=O)c2ccc(F)cc2)CC(C)(C)c2c1[nH]c1ccccc21	148
CCCOC(=O)C1=CN(C(=O)c2ccc(F)cc2)CCc2c1[nH]c1ccccc21	130

Further lines, results first:

Efficacy [%]	SMILES
190	CCOC(=O)C1=CN(C(=O)c2ccc(Cl)cc2)CC(C)(C)c2c1[nH]c1ccccc21
100	CCOC(=O)C1=CN(C(=O)c2ccc(F)cc2)CCc2c1[nH]c1ccccc21
170	CCOC(=O)C1=CN(C(=O)c2ccc(F)c(F)c2)CC(C)c2c1[nH]c1ccccc21 (stereo not given)
145	CCOC(=O)C1=CN(C(=O)c2ccc(OC)cc2)CC(C)c2c1[nH]c1ccccc21 (stereo not given)
144	CCOC(=O)C1=CN(C(=O)c2ccc(F)c(F)c2)CC(C)(C)c2c1[nH]c1ccccc21
